Test system: Rats (male, Simonsen)
Assay: formalin paw model
Type: in vivo, rat
Parameters: concentration or dose not given beside the values
Conditions: oral, 90 min before formalin
Procedure: In this assay, injection of formalin, an irritant, into the hindpaw of rats typically evokes a biphasic response of pain-related behaviors. Phase 1 of the response which is brief, lasting approximately 0-5 min post-injection,is followed by a more prolonged phase 2, lasting approximately 10-80 min post-injection. Phase 1 behavior is thought to be a direct effect of the irritant on nociceptors at the injection site while phase 2 behavior is thought to include a hyperalgesic component mediated by sensitization of neuronal elements within the spinal cord. Studies from other laboratories have found the first portion of Phase 2 (sometimes referred to as Phase 2a) to be most responsive to pharmacological manipulation.
Rats (male, Simonsen) weighing between 100-200 g, are used in the present experiments. For screening purposes drugs are administered orally 90 min prior to initiation of formalin test. At designated intervals the animals in groups of 4 are placed individually in a small animal restrainer with the right hindpaw accessible through a hole in the bottom of the restrainer. The formalin paw assay is initiated by the injection using a 30G needle of 50 μl of a 5% formalin solution in saline into the right plantar surface of each hindpaw. The rat is then immediately placed in a separate plexiglass box and scoring (described below) of the animal's behavior is begun at 1.7 min after formalin injection. The instantaneous behavior of each animal in a group of 4 was observed and assigned a score once in each 20 second interval. This sequence is repeated over a 30 min period. The scoring protocol is an adaptation of the method published by Dubuisson and Dennis (Pain 4:161-174, 1977) which assigns a score from 0-3 as follows:
0--no discernible favoring of injected paw, weight evenly distributed
1--injected paw is favored, rests lightly on floor
2--injected paw is elevated
3--injected paw is vigorously licked, bitten or shake
Scores are continuously recorded directly onto an Excel spreadsheet. […] 2) the total number of incidences specifically of licking/biting behavior is summed over Phase 2 and mean values determined from 6 different animals with results expressed as % inhibition compared to vehicle control.

## O[C@@H]1[C@H](O)CO[C@H]1n1cc(-c2ccccc2)c2c(Nc3ccc(F)cc3)ncnc21 [compound 28]
1.7-5 min post-formalin
  % Inhibition Phase 1 Composite score: 9.2%
10.3-30 min post-formalin
  % Inhibition Phase 2 Composite score: 37.4%
Phase 2
  % Inhibition Phase 2. Licking/biting: 76.1%
